Source: patent US12280141B2, “Liquid depot for non-invasive sustained delivery of agents to the eye” (CHIBI, INC., priority 2018, dated 2025)
Several values for one entry are separate records, joined by “and”; a condition that tells them apart may be missing. Equal values may be shown once. Entries after “also recorded” stand apart in the source; their conditions may differ. One block for each molecule: values may come before it.

Columns and labels:
[1] = Diclofenac in tear samples after 50 μL liquid depot; type: in vivo, NZW rabbits; settings: one-time application of 50 μL
Protocol: A formulation of the NSAID diclofenac was prepared by thoroughly mixing 10% diclofenac acid in a 90% liquid depot mixture of 80:20 tocopheryl acetate:Miglyol®. A one-time application of 50 μL of this formulation was instilled into the eyes of NZW rabbits, and then tear samples were collected and analyzed as described herein.

[2] = Dexamethasone level in anterior chamber after 50 μL depot (GLP study); type: in vivo, New Zealand White (NZW) rabbits; settings: both sexes, New Zealand White, rabbit, topical
Protocol: In a good laboratory practices (GLP) study, depots of 50 μL were instilled into each eye of New Zealand White (NZW) rabbits (either sex, 3.5-4 kilo), and the anterior chamber tapped subsequently and assayed by LCMS.

[3] = Dexamethasone in eye tissues and fluids after one 25 μL depot instillation; settings: for concentration at 3 day / concentration at 8 day / concentration at 8 h / concentration at 24 h / concentration at 14 day / concentration at 21 day: female, New Zealand White, rabbit, topical, 25 μL, Dexamethasone; for concentration at 3 day: Day 3; for concentration at 8 day: Day 8; for concentration at 24 h: Hr 24
[4] = In vitro release of prednisolone from liquid depot, samples 5A to 5F; type: physicochemical
Protocol: Six samples, 5A to 5F, each weighing at 48.2 mg, 48.5 mg, 48.1 mg, 49 mg, 51.7 mg, and 49.2 mg, respectively (average weight=49.1 mg; SD=1.34; % RSD=2.7) were incubated in 50 ml saline at 40° C. At each time point, 25 ml from each of the six samples was withdrawn for sampling and replaced with 25 ml saline.

[5] = Vitamin E acetate in rabbit aqueous humor samples; type: in vivo; settings: days 1, 4, 7, 12; quantification limit 1.0 ng/mL
[6] = single 50 μL instillation
[7] = In vitro release of gatifloxacin from liquid depot, samples Gati-90A to F; type: physicochemical; settings: for Gatifloxacin cumulative % released, Avg: Avg of 90-A to 90-F
Protocol: The in vitro sustained release study of gatifloxacin was carried out using a Cabone ring (Wilton Brands LLC, Woodridge, Ill. 60517) of 12.7 mm. […] [At each time point, 20 ml from each of the six samples was withdrawn for sampling and replaced with 20 mL saline. The amount of gatifloxacin released was determined by UPLC. The release profile of gatifloxacin-containing liquid depot formulation is shown in Table 15, Table 16, and FIG. 14; gatifloxacin was released for at least 24 hours.

[8] = aqueous humor, Aqueous Humor Average (±SD), one 25 μL instillation of 10% dexamethasone depot
[9] = conjunctiva, Conjunctiva Average (±SD), one 25 μL instillation
[10] = cornea, Cornea Average (±SD), one 25 μL instillation
[11] = iris/ciliary body, Iris/Ciliary Body Average (±SD), one 25 μL instillation
[12] = one instillation of the liquid depot

SMILES: O=C(O)Cc1ccccc1Nc1c(Cl)cccc1Cl [diclofenac, diclofenac acid]
Time diclofenac was detected in the rabbit tear film [1]: ≥ 7 days

SMILES: C[C@@H]1C[C@H]2[C@@H]3CCC4=CC(=O)C=C[C@]4(C)[C@@]3(F)[C@@H](O)C[C@]2(C)[C@@]1(O)C(=O)CO [Dexamethasone, dexamethasone]
concentration at 1 day ([2]; Day 1, 50 μL depot 10:72:18): 6.68 ng/mL
concentration at 3 day ([2]; Day 3, 50 μL depot 10:72:18): 6.48 ng/mL
concentration at 5 day ([2]; Day 5, 50 μL depot 10:72:18): 4.14 ng/mL
concentration at 7 day ([2]; Day 7, 50 μL depot 10:72:18): 4.08 ng/mL
concentration at 10 day ([2]; Day 10, 50 μL depot 10:72:18): 3.2 ng/mL
Dexamethasone, Iris/Ciliary Body Tissue ([3]; Day 14, per eye, one 25 μL instillation): 1.21 ng/g and 2.00 ng/g
Dexamethasone, Iris/Ciliary Body Homog. ([3]; Day 14, per eye, one 25 μL instillation, LOQ 0.2 ng/mL): 0.241 ng/mL and 0.399 ng/mL
Dexamethasone, Aqueous Humor Conc. ([3]; Day 21, per eye, one 25 μL instillation of 10% dexamethasone depot, LOQ 0.5 ng/mL): BLOQ
Dexamethasone, Iris/Ciliary Body Homog. ([3]; Day 21, per eye, one 25 μL instillation, LOQ 0.2 ng/mL): BLOQ
Dexamethasone, Iris/Ciliary Body Tissue ([3]; Hr 8, per eye, one 25 μL instillation): 83.0 ng/g and 86.0 ng/g and 150 ng/g and 113 ng/g and 157 ng/g
Dexamethasone, Iris/Ciliary Body Homog. ([3]; Hr 8, per eye, one 25 μL instillation, LOQ 0.2 ng/mL): 16.6 ng/mL and 17.2 ng/mL and 30.0 ng/mL and 22.5 ng/mL and 31.4 ng/mL
concentration at 3 day [3, 8]: 2.5 ng/mL
concentration at 8 day [3, 8]: 7.53 ng/mL
concentration at 8 h ([3]; aqueous humor, Aqueous Humor Average (±SD), Hr 8, one 25 μL instillation of 10% dexamethasone depot): 44.8 ng/mL
concentration at 24 h [3, 8]: 2.47 ng/mL
concentration at 14 day ([3]; aqueous humor, Aqueous Humor Conc., Day 14, per eye, one 25 μL instillation of 10% dexamethasone depot, LOQ 0.5 ng/mL): 0.677 ng/mL
concentration at 3 day [3, 9]: 372 ng/g
concentration at 8 day [3, 9]: 1630 ng/g
concentration at 14 day ([3]; conjunctiva, Conjunctiva Average (±SD), Day 14, one 25 μL instillation): 53.8 ng/g
concentration at 21 day ([3]; conjunctiva, Conjunctiva Average (±SD), Day 21, one 25 μL instillation): 28.2 ng/g
concentration at 8 h ([3]; conjunctiva, Conjunctiva Average (±SD), Hr 8, one 25 μL instillation): 1660 ng/g
concentration at 24 h [3, 9]: 598 ng/g
concentration at 3 day [3, 10]: 176 ng/g
concentration at 8 day [3, 10]: 284 ng/g
concentration at 14 day ([3]; cornea, Cornea Average (±SD), Day 14, one 25 μL instillation): 12.2 ng/g
concentration at 21 day ([3]; cornea, Cornea Average (±SD), Day 21, one 25 μL instillation): 8.14 ng/g
concentration at 8 h ([3]; cornea, Cornea Average (±SD), Hr 8, one 25 μL instillation): 560 ng/g
concentration at 24 h [3, 10]: 260 ng/g
concentration at 14 day ([3]; iris/ciliary body homogenate, Iris/Ciliary Body Homog., Day 14, per eye, one 25 μL instillation, LOQ 0.2 ng/mL): 0.239 ng/mL
concentration at 8 h ([3]; iris/ciliary body homogenate, Iris/Ciliary Body Homog., Hr 8, per eye, one 25 μL instillation, LOQ 0.2 ng/mL): 30.2 ng/mL
concentration at 3 day [3, 11]: 9.72 ng/g
concentration at 8 day [3, 11]: 8.15 ng/g
concentration at 14 day ([3]; iris/ciliary body, Iris/Ciliary Body Average (±SD), Day 14, one 25 μL instillation): 1.47 ng/g
concentration at 21 day ([3]; iris/ciliary body, Iris/Ciliary Body Average (±SD), Day 21, one 25 μL instillation): 3.88 ng/g
concentration at 8 h ([3]; iris/ciliary body, Iris/Ciliary Body Average (±SD), Hr 8, one 25 μL instillation): 123 ng/g
concentration at 24 h [3, 11]: 12.3 ng/g
concentration at 14 day ([3]; iris/ciliary body, Iris/Ciliary Body Tissue, Day 14, per eye, one 25 μL instillation): 1.2 ng/g
concentration at 8 h ([3]; iris/ciliary body, Iris/Ciliary Body Tissue, Hr 8, per eye, one 25 μL instillation): 151 ng/g
Time dexamethasone was in the aqueous humor [3, 12]: at least 8 days
Time dexamethasone was in the conjunctiva, cornea, and iris/ciliary body [3, 12]: at least 21 days

SMILES: CC(=O)Oc1c(C)c(C)c2c(c1C)CC[C@@](C)(CCC[C@H](C)CCC[C@H](C)CCCC(C)C)O2 [Vitamin E acetate, [(2R)-2,5,7,8-tetramethyl-2-[(4R,8R)-4,8,12-trimethyltridecyl]chroman-6-yl]acetate]
Vitamin E acetate in aqueous humor samples [5]: not observed; also recorded: No detectable
Time vitamin E acetate was present in the tears of rabbit eyes [6]: at least 12 days

Now from value to molecule:

Prednisolone cumulative % released, Avg ([4]; Day 0, Avg of 5A to 5F): 0%
Average concentration of prednisolone released ([4]; Day 1): 32.6 µg/mL
Amount of prednisolone released, Avg ([4]; Day 1, Avg of 5A to 5F): 1630.3 µg
Average concentration of prednisolone released ([4]; Day 2): 39.4 µg/mL
Amount of prednisolone released, Avg ([4]; Day 2, Avg of 5A to 5F): 1153.1 µg
Average concentration of prednisolone released ([4]; Day 3): 38.1 µg/mL
Amount of prednisolone released, Avg ([4]; Day 3, Avg of 5A to 5F): 922.4 µg
Average concentration of prednisolone released ([4]; Day 4): 30.6 µg/mL
Amount of prednisolone released, Avg ([4]; Day 4, Avg of 5A to 5F): 577.5 µg
Average concentration of prednisolone released ([4]; Day 5): 19.6 µg/mL
Amount of prednisolone released, Avg ([4]; Day 5, Avg of 5A to 5F): 72.3 µg
SMILES: C[C@]12C=CC(=O)C=C1CC[C@@H]1[C@@H]2[C@@H](O)C[C@@]2(C)[C@H]1CC[C@]2(O)C(=O)CO [Prednisolone, prednisolone]

Average concentration of gatifloxacin released ([7]; 1 Hour): 38.9 µg/mL
Gatifloxacin cumulative % released, Avg ([7]; 1 Hour): 32.3%
Average concentration of gatifloxacin released ([7]; 3 Hours): 61.9 µg/mL
Gatifloxacin cumulative % released, Avg ([7]; 3 Hours): 67.5%
Average concentration of gatifloxacin released ([7]; 24 Hours): 53.4 µg/mL
Gatifloxacin cumulative % released, Avg ([7]; 24 Hours): 86.2%
Time gatifloxacin was released in vitro ([7]; 40 mL saline at 40° C.): at least 24 hours
SMILES: COc1c(N2CCNC(C)C2)c(F)cc2c(=O)c(C(=O)O)cn(C3CC3)c12 (stereo not shown) [Gatifloxacin, gatifloxacin]
